One data set concerns the target Recombinant human BACE-1 (Homo sapiens (Human), UniProt P56817). As to the kind of experiment: Measurement of BACE1 inhibitory activity. The data set is classed as biochemical. The conditions noted are these: Recombinant human BACE-1 7.4 nM, substrate peptide 18 nM, pH 5.0, 3 hours at 30° C.; read-out: IC50 (BACE1 enzyme activity). The protocol: First, 48.5 μl portions of a solution of substrate peptide (Biotin-XSEVNLDAEFRHDSGC-Eu: X=ε-amino-n-capronic acid, Eu=Europium cryptate) were put into respective wells of a 96-well half area microplate (black microplate, Costar). Then, 0.5 μl of a test compound (DMSO (dimethyl sulfoxide) solution) and 1 μl of Recombinant human BACE-1 (R&D systems) were added to each of the wells, and they were reacted for 3 hours at 30° C. […] The final concentration of the substrate peptide was set to 18 nM, and the final concentration of Recombinant human BACE-1 was set to 7.4 nM. The reaction buffer used was a sodium acetate buffer (50 mM sodium acetate, pH 5.0, 0.008% Triton X-100). After the reaction finished, 50 μl portions of a 8.0 μg/ml solution of Streptavidin-XL665 (CIS bio international) in a phosphate buffer (150 mM K2HPO4—KH2PO4, pH 7.0, 0.008% Triton X-100, 0.8 M KF) were added to the respective wells, and the plate was left standing for 1 hour at 30° C. Thereafter, the fluorescence intensity (excitation wavelength: 320 nm, measurement wavelength: 620 nm and 665 nm) was measured with a Wallac 1420 multilabel counter (Perkin Elmer life sciences). The enzyme activity was determined from the count rate at each measurement wavelength (10000× Count 665/Count 620), and the amount needed to inhibit the enzyme activity by 50% (IC50) was calculated.

Data set [1] concerns Neuroblastoma SH-SY5Y cells (SH/APPwt) with human wild-type β-APP excessively expressed. As to the kind of experiment: Measurement of β-amyloid (Aβ) production inhibitory effect in cell. The data set is classed as cell-based. The following applies: 24 hours incubation, Amyloid-β 1-40 HTRF. The protocol: Neuroblastoma SH-SY5Y cells (SH/APPwt) with human wild-type β-APP excessively expressed therein were prepared at 8×10^5 cells/mL, and 150 μl portions thereof were inoculated into respective wells of a 96-well culture plate (Falcon). The cells were cultured for 2 hours at 37° C. in a 5% gaseous carbon dioxide incubator. […] Namely, the final DMSO concentration was 1%, and the amount of the cell culture was 200 μl. After the incubation was performed for 24 hours from the addition of the test compound, 100 μl of the culture supernatant was collected from each fraction. The amount of the Aβ in each fraction was measured. The Aβ amount was measured as follows. 10 μl of a homogeneous time resolved fluorescence (HTRF) measurement reagent (Amyloid-β 1-40 peptide; IBA Molecular Holding, S.A.) and 10 μl of the culture supernatant were put into a 384-well half area microplate (black microplate, Costar) and mixed with each other, and then left standing overnight at 4° C. while the light was shielded. Then, the fluorescence intensity (excitation wavelength: 337 nm, measurement wavelength: 620 nm and 665 nm) was measured with a Wallac 1420 multilabel counter (Perkin Elmer life sciences).

For another data set, the target named is CYP3A4 (Homo sapiens (Human), UniProt P08684). The data set can be described thus: CYP3A4 fluorescent MBI test. It is filed as in vitro ADME. The conditions noted are these: E. coli-expressing CYP3A4, 7-BFC substrate, pre-reaction 0 or 30 minutes. The procedure:
The CYP3A4 fluorescent MBI test is a test to examine enhancement of CYP3A4 inhibition by metabolic reaction of the compound. Here, E. coli-expressing CYP3A4 was used as an enzyme, and a reaction wherein 7-benzyloxy trifluoromethylcumarin (7-BFC) was debenzylated by the CYP3A4 enzyme into a fluorescent metabolite 7-hydroxytrifluoromethylcumarin (HFC) was employed as an indicator reaction. The reaction conditions were as follows.
Substrate: 5.6 μmol/L 7-BFC
Pre-reaction time: 0 or 30 minutes
Reaction time: 15 minutes
Reaction temperature: 25° C. (room temperature)
CYP3A4 content (E. coli-expressing enzyme): 62.5 pmol/mL at pre-reaction, […] at reaction (10-fold diluted) […]
The enzyme and a test compound solution were added to a K-Pi buffer (pH 7.4) in the aforementioned amounts for the pre-reaction so that a pre-reaction solution was prepared, and this solution was put into a 96-well microplate. […] With respect to each of the microplates on which the indicator reaction was performed, the fluorescence value of the metabolite 7-HFC was measured with a fluorescence plate reader (Ex=420 nm, Em=535 nm). […] The remaining activity (%) at each concentration after adding the test compound solution was calculated, and the IC50 value was calculated from the concentration and inhibition percentage by inverse estimation with the logistic model. […]

Another data set addresses hERG (IKr) (Homo sapiens (Human), UniProt Q12809). The data set can be described thus: hERG test. The data set is classed as cell-based. The conditions noted are these: HEK293 cells expressing hERG channel, pH 7.4, HEK293 cell expressing hERG, compound concentration 5 μM, read-out: inhibitory percentage (IKr maximum tail current). From the text:
For the purpose of risk assessment for QT prolongation on an electrocardiogram, the action on delayed rectifier K+ current (IKr) which plays an important role on a process of ventricular repolarization was studied using a HEK293 cell with a human ether-a-go-go related gene (hERG) channel expressed therein. A cell was maintained at a membrane potential of −80 mV, and then +40 mV of a depolarizing stimulus was applied to the cell for 2 seconds and further −50 mV of a repolarizing stimulus was applied thereto for 2 seconds by a whole-cell patch clamp technique with a fully-automatic patch clamp system (PatchXpress 7000A, Axon Instruments Inc.), and the induced IKr was recorded. […] The absolute value of the maximum tail current was determined from the obtained IKr with an analysis software (DataXpress ver. 1, Molecular Devices Corporation) based on a current value at a maintained membrane potential. Further, an inhibitory percentage relative to the maximum tail current before application of the test compound was calculated, and influence of the test compound on IKr was evaluated in comparison with the medium application group (0.1% dimethyl sulfoxide solution). […]

The source of these data is patent US8703785B2, “2-aminopyrimidin-4-one and 2-aminopyridine derivatives both having BACE1-inhibiting activity” (Shionogi & Co., Ltd., priority 2008, dated 2014).

Sequence of Recombinant human BACE-1 (P56817 46-501): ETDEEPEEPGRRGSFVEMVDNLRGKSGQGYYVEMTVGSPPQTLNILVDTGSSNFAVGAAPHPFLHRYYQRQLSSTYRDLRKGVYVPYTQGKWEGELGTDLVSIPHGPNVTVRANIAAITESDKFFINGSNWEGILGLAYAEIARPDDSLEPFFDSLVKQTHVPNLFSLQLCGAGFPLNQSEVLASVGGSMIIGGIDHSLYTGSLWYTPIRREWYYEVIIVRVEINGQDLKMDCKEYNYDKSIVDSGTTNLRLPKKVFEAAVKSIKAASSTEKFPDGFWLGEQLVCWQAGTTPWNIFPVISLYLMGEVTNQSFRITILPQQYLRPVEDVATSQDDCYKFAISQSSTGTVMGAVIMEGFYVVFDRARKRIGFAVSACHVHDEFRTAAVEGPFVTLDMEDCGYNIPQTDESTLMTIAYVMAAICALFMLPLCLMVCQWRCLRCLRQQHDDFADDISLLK
Sequence of hERG (IKr) (Q12809 whole entry): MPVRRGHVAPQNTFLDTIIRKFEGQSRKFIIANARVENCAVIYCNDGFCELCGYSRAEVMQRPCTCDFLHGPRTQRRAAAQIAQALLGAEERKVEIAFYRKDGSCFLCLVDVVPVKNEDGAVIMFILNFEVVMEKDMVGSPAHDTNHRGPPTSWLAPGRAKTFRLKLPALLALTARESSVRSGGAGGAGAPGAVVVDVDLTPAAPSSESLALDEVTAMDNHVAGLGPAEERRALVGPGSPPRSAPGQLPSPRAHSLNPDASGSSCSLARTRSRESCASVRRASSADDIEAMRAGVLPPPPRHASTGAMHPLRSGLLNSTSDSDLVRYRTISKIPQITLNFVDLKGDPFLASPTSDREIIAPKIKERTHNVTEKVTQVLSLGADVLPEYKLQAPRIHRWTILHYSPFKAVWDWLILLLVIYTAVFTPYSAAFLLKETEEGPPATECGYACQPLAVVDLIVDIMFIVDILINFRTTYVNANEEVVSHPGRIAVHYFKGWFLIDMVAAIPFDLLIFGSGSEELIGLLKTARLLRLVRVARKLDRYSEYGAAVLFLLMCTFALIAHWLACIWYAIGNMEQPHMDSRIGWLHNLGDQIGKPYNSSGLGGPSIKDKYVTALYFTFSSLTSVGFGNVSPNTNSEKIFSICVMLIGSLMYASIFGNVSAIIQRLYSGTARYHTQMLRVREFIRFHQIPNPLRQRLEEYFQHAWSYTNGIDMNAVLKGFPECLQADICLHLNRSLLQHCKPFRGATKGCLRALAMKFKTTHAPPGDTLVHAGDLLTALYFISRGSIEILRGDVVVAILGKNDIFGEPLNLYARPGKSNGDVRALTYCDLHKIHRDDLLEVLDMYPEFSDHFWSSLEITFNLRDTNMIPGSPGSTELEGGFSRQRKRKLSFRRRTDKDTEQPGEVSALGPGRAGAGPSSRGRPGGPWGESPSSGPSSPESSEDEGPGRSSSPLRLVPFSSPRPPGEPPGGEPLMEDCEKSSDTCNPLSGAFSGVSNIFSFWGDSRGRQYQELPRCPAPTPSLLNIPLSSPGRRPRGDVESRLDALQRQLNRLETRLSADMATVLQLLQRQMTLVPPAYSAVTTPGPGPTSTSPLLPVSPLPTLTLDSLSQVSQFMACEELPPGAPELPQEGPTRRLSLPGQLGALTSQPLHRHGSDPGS
Sequence of CYP3A4 (P08684 whole entry): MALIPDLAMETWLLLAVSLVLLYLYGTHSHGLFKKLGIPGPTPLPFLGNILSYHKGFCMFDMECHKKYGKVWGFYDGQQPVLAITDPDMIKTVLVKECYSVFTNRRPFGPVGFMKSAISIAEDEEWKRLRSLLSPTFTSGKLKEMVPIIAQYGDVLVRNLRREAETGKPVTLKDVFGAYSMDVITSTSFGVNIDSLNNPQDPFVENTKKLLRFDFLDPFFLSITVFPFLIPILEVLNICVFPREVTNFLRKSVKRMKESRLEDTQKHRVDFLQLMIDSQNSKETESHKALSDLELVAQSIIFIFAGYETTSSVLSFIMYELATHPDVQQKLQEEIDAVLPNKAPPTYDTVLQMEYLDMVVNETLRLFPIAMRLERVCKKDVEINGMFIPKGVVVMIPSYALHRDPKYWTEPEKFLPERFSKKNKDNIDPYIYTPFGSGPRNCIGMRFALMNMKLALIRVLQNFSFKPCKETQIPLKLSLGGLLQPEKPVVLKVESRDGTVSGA

Turning to `COCCOc1cnc(C(=O)Nc2cccc(C3(C)CC(=O)N(C)C(N)=N3)c2)cn1` (stereo not shown) [Compound 40], the values for the IC50 (at Recombinant human BACE-1; in data set [1]) were 14 nM and 0.9 nM, respectively. The IC50 difference without vs with pre-reaction against CYP3A4 was ≤ 3 µM. Besides, the inhibition at 10 min, 5 µM at hERG (IKr) stood at 4.1%.

What is called IC50 is the point on the concentration scale where inhibition reaches its midpoint.
